Assays:
[1] = tested on: cardiomyocytes induced from human iPS cells (253G1 strain); assay: Proliferation culture of cardiomyocytes with WNT signal activator CHIR99021, serial subculture (Example 2); assay type: cell-based; settings: for cTnT positive rate (cardiomyocyte purity): CHIR99021 added (1 to 5 μM); for proliferation rate compared with no CHIR99021: CHIR99021 1 to 5 μM; for total cardiomyocyte proliferation: 2.0×10^5 cells/cm^2
Procedure: A “ratio of multinucleated cardiomyocytes” was determined from a percentage of multinucleated cardiomyocytes in 10,000 cardiomyocytes.
Thereafter, the culture medium was replaced every 3 to 4 days, and culturing was performed for 2 weeks (a first serial subculture).
For the cells obtained after each serial subculture, “cardiomyocyte purity”, “cardiomyocyte proliferation rate”, “ratio of multinucleated cardiomyocytes”, and “average maximum length of multinucleated cardiomyocytes” were determined according to the same procedure as in Example 1.

[2] = tested on: cardiomyocyte population (third serial subculture); assay: Drug responsiveness test by calcium imaging; assay type: cell-based, human; settings: terfenadine 300 to 900 nM; calcium signal 10 minutes after addition
Procedure: The obtained cardiomyocyte population was tested for drug responsiveness. A drug responsiveness test was performed by calcium imaging using a fluorescence microscope. Specifically, the drug responsiveness test was performed by acquiring pulsatile calcium fluorescence movies of cardiomyocytes on a fluorescence microscope Olympus IX83.
In the drug responsiveness test, a mixture having the following composition was adjusted to pH 7.4 and used as a culture solution for cardiomyocytes:
ImageJ-based image analysis software was used for data analysis.

Row | Structure (SMILES) | cTnT positive rate (cardiomyocyte purity) ([1]; after the first serial subculture, before culturing 90 to 96%) | cTnT positive rate (cardiomyocyte purity) ([1]; after the second serial subculture) | concentration of CHIR99021 at which the cardiomyocyte proliferation rate was the highest ([1]; first and second serial subculture, tested 1, 2, 3, 5 μM) | cardiomyocyte proliferation rate ([1]; first serial subculture (2 weeks), seeding density 2.0×10^5 cells/cm^2, CHIR99021 3 μM) | proliferation rate compared with no CHIR99021 ([1]; first serial subculture) | total cardiomyocyte proliferation ([1]; in total after the second serial subculture, CHIR99021 3 μM) | total cardiomyocyte proliferation ([1]; in total after the third to fourth serial subcultures, CHIR99021 3 μM) | proliferation rate compared with no CHIR99021 ([1]; second serial subculture) | early afterdepolarization (EAD) response [2]
1 | Cc1cnc(-c2cnc(NCCNc3ccc(C#N)cn3)nc2-c2ccc(Cl)cc2Cl)[nH]1 [CHIR99021, 6-[2-[[4-(2,4-dichlorophenyl)-5-(5-methyl-1H-imidazol-2-yl)pyrimidin-2-yl]amino]ethylamino]pyridine-3-carbonitrile] | ≥ 90% | ≥ 90% | 3 µM | 4.5 fold | higher proliferation rates | 12.6 fold | 22.7 fold | higher proliferation rates | –
2 | CC(C)(C)c1ccc(C(O)CCCN2CCC(C(O)(c3ccccc3)c3ccccc3)CC2)cc1 (stereo not drawn) [terfenadine] | – | – | – | – | – | – | – | – | detected
